Like-named read-outs stand apart in the source and are kept apart here.
Columns and labels:
K562 cells [1] = test: Cell cycle distribution by flow cytometry (Muse Cell Analyzer); assay type: cell-based, human; settings: K562, 72 h, three experiments, average ± S.D.; for percentage of G2/M-phase cells at IC50: at IC50 (3a 0.75 μM, 3b 0.70 μM); for percentage of G2/M-phase cells at IC75: at IC75 (3a 1.0 μM, 3b 0.90 μM)
Description: The cells were cultured for 72 h in the presence of two different concentrations (IC50 and IC75) for each tested derivative and the obtained results were compared with non-treated K562 cells as control.
Human leukemia K562 cells were treated with compounds 3a or 3b, and analysis of the distribution of the cells through the cell cycle was performed with the Muse Cell Analyzer instrument (Millipore Corporation, Billerica, MA, USA). Assay and cell counting were performed according to the instructions supplied by the manufacturer. Samples were collected after the treatment and washed in PBS. For analysis, 5 × 10^5 cells were resuspended in 200 μL of Muse Cell Cycle Reagent, incubated for 30 min at room temperature, and the cell suspension was transferred to a 1.5 mL microcentrifuge tube prior to analysis. Cells were analyzed by fluorescence-activated cell sorting analysis using a Muse Cell Analyzer.

[2] = system: human chronic myelogenous leukemia K562 cells; test: In vitro antiproliferative assay, K562 cells; assay type: cell-based; settings: 72 h; for IC50: Homo sapiens
Description: These values are 1.5-fold lower than those obtained with the 6-methoxycarbonyl derivative 3a against L1210 and HeLa cells, while both compounds were equipotent against CEM cells.
(§1) Murine leukemia L1210, human T-lymphocyte leukemia CEM, human cervix carcinoma (HeLa), and human chronic myelogenous leukemia K562 cells (3–5 × 10^4 cells) and a serial (5-fold) dilution of the test compounds were added to a 96-well microtiter plate. The cells were incubated for 72 h at 37 °C in a humidified 5% CO2 atmosphere. At the end of the incubation period, the cells were counted in a Coulter Counter (Coulter Electronics Ltd., Harpenden Herts, United Kingdom). The IC50 (50% inhibitory concentration) was defined as the concentration of compound that inhibited cell proliferation by 50%. The IC50 values represent the average (± standard deviation) of three independent experiments. Human peripheral blood mononuclear cells (PBMC) were obtained from healthy donors by centrifugation with Ficoll-Paque Plus (GE Healthcare Bio-Sciences AB, Uppsala).

[3] = system: human T-lymphoblastoid leukemia (CEM) cells; test: In vitro antiproliferative assay, CEM cells; assay type: cell-based; settings: CCRF-CEM; human T-lymphocyte CEM, 72 h, cell count; mean ± SE
Description: as §1, with “The IC50 (50% inhibitory concentration) was defined as the concentration of compound that inhibited cell proliferation by 50%.” left out

Bovine brain tubulin = test: Inhibition of tubulin polymerization (turbidimetric assembly); assay type: biochemical; settings: tubulin at 10 μM, 20 min incubation; read-out: Tubulin assembly IC50 ± SD
Description: (§2) Bovine brain tubulin was purified as described previously. To evaluate the effect of the compounds on tubulin assembly in vitro [59], varying concentrations were preincubated with 10 μM tubulin in 0.8 M glutamate buffer at 30 °C and then cooled to 0 °C. After addition of GTP, the mixtures were transferred to 0 °C cuvettes in a recording spectrophotometer and warmed to 30 °C, and the assembly of tubulin was observed turbidimetrically. […] The ability of the test compounds to inhibit colchicine binding to tubulin was measured as described earlier, except that the reaction mixtures contained 1 μM tubulin, 5 μM of [^3H]colchicine, and test compounds 3a or 3b.

[4] = system: human peripheral blood mononuclear cells (PBMC); test: Antiproliferative activity in normal human cells (PBMC); assay type: cell-based; settings: 72 h
Description: In order to investigate the selective antiproliferative activities of derivatives 3a and 3b in normal human cells, both these molecules were tested in vitro against human peripheral blood mononuclear cells (PBMC) isolated from healthy donors.
as §1

[5] = system: human cervix carcinoma (HeLa) cells; test: In vitro antiproliferative assay, HeLa cells; assay type: cell-based; settings: for fold more active than 2b against HeLa cells: relative to 2b (IC50: 41 μM); for IC50: human cervix carcinoma HeLa, 72 h, cell count, mean ± SE
Description: as §1, with “The IC50 (50% inhibitory concentration) was defined as the concentration of compound that inhibited cell proliferation by 50%.” left out

K562 cells [6] = test: Apoptosis assay (Muse Annexin V & Dead Cell Kit); assay type: cell-based, human; settings: K562, 72 h, representative experiment; for cells undergoing apoptosis (total) at IC50: at IC50 (3a 0.75 μM, 3b 0.70 μM); for cells undergoing apoptosis (total) at IC75: at IC75 (3a 1.00 μM, 3b 0.90 μM)
Excerpt: This phospholipid flips from the inner to the outer leaflet of the plasma membrane during apoptosis. Positive staining with annexin-V correlates with the loss of plasma membrane polarity, but this staining precedes the complete loss of membrane integrity that accompanies the later stages of cell death, resulting from either apoptosis or necrosis. In contrast, PI can only enter cells after complete loss of membrane integrity. Thus, dual staining for annexin-V and with PI permits discrimination between unaffected cells (annexin-V^−/PI^−), early apoptotic cells (annexin-V^+/PI^−), late apoptotic cells (annexin-V^+/PI^+), and necrotic cells (annexin-V^−/PI^+).
Apoptosis assays on K562 cells were performed with the Muse Cell Analyzer instrument, and assays were performed according to the instructions supplied by the manufacturer. The Muse Annexin V & Dead Cell Kit employs annexin V to detect phosphatidyl serine (PS) on the external membrane of apoptotic cells. A fluorescent DNA intercalator (7-ADD: 7-aminoactinomycin D) is also used as an indicator of cell membrane integrity. From live, healthy cells, as well as early apoptotic cells, 7-ADD is excluded while it is able to bind DNA in cells in late apoptosis and in dead cells. Cells were washed with sterile PBS 1X, suspended, and diluted (1:2) with the Muse Annexin V & Dead Cell reagent. Samples were gently mixed and incubated at room temperature, protected from the light for 15 min. Samples were analyzed using a Muse Cell Analyzer, and data from prepared samples were acquired and recorded utilizing the Annexin V and Dead Cell Software Module (Millipore).

[7] = system: L1210, CEM, and HeLa cells; test: Antiproliferative activity, panel of three cancer cell lines; assay type: cell-based; settings: for IC50: span over L1210, CEM and HeLa, read-out: IC50 values against the panel of three cancer cell lines
Excerpt: (§3) In Table 1 we report the in vitro antiproliferative activity of 2-(3′,4′,5′-trimethoxyanilino)-4,5,6,7-tetrahydrothieno[2,3-c]pyridine derivatives 3a–3j and the related 4,5,6,7-tetrahydrobenzo[b]thiophenes 3k–3p against a panel of three cell lines, which were derived from different cancer types, including murine leukemia (L1210), human T-lymphoblastoid leukemia (CEM), and human cervix carcinoma (HeLa) cells.
as §1

[8] = system: tubulin (colchicine site); test: Inhibition of [3H]colchicine binding to tubulin; design: species or system Bovine; settings: tubulin 1 μM, colchicine 5 μM, compound 5 μM
Description: as §2

[9] = system: murine leukemia (L1210) cells; test: In vitro antiproliferative assay, L1210 cells; assay type: cell-based; settings: Mus musculus; murine leukemia L1210, 72 h, cell count; mean ± SE
Excerpt: as §3, §1

[10] = phytohemagglutin (PHA)-stimulated PBMC, read-out: IC50 PBMC, PHA-stimulated
[11] = resting PBMC from healthy donors, read-out: IC50 PBMC, resting

Row | percentage of G2/M-phase cells at IC50 (K562 cells [1]) | IC50 [2] [nM] | IC50 [3] [nM] | IC50 (Bovine brain tubulin) [nM] | IC50 [5] [nM] | cells undergoing apoptosis (total) at IC50 (K562 cells [6]) [%] | IC50 [7] [nM] | Colchicine binding % ± SD (inhibition of [3H]colchicine binding) [8] [%] | IC50 [9] [nM] | fold lower IC50 than 3a ([7]; against L1210 and HeLa cells) [fold] | Compound | percentage of G2/M-phase cells at IC75 (K562 cells [1]) | IC75 K562 [2] [nM] | IC50 [4, 10] [nM] | IC50 [4, 11] [nM] | fold more active than 2b against HeLa cells [5] [fold] | cells undergoing apoptosis (total) at IC75 (K562 cells [6]) [%]
1 | 33.6% ± 1.1% | 750 | 2900 ± 2100 | 3800 ± 50 | 1900 ± 1200 | 29.64 | 1900 to 4700 | 29 ± 1 | 4700 ± 400 | – | COC(=O)N1CCc2c(sc(Nc3cc(OC)c(OC)c(OC)c3)c2C#N)C1 [Compound 3a, Methyl 3-cyano-2-((3,4,5-trimethoxyphenyl)amino)-4,5-dihydrothieno[2,3-c]pyridine-6(7H)-carboxylate] | 34.9% ± 1.3% | 1000 | > 20000 | > 20000 | 40 | 46.68
2 | 30.3% ± 1.3% | 700 | 2300 ± 1700 | 3400 ± 50 | 1100 | 32.87 | 1100 to 2800 | 31 ± 1 | 2800 ± 2300 | 1.5 | CCOC(=O)N1CCc2c(sc(Nc3cc(OC)c(OC)c(OC)c3)c2C#N)C1 [Compound 3b, Ethyl 3-cyano-2-((3,4,5-trimethoxyphenyl)amino)-4,5-dihydrothieno[2,3-c]pyridine-6(7H)-carboxylate] | 33.5% ± 0.6% | 900 | > 20000 | > 20000 | 20 | 56.01

From publication PMC7181277, “Synthesis and Biological Evaluation of New Antitubulin Agents Containing 2-(3′,4′,5′-trimethoxyanilino)-3,6-disubstituted-4,5,6,7-tetrahydrothieno[2,3-c]pyridine Scaffold” (Molecules, 2020)
